Laboratory results reported in patent US8426441B2, “Inhibitors of bruton's tyrosine kinase” (Roche Palo Alto LLC, priority 2007, dated 2013).

| melting point [°C] | Compound |
| --- | --- |
| 144.1 to 188.6 | Cc1c(NC(=O)c2ccc(N(C)C)cc2)cccc1-c1cc(NC(=O)NCCCO)c2nccn2c1 [Example I-69, 4-Dimethylamino-N-(3-{8-[3-(3-hydroxy-propyl)-ureido]-imidazo[1,2-a]pyridin-6-yl}-2-methyl-phenyl)-benzamide] |
| 167 to 168 | Cc1c(NC(=O)c2ccc(C(C)(C)C)cc2)cccc1-c1cc(NC(=O)NCCCN2CCN(C)CC2)c2nccn2c1 [Example I-94, 4-tert-Butyl-N-[2-methyl-3-(8-{3-[3-(4-methyl-piperazin-1-yl)-propyl]-ureido}-imidazo[1,2-a]pyridin-6-yl)-phenyl]-benzamide] |
| 132 to 133 | CC(=O)Nc1cc(-c2cccc(NC(=O)c3ccc(C(C)(C)C)cc3)c2C)cn2ccnc12 [Example I-57, N-[3-(8-Acetylamino-imidazo[1,2-a]pyridin-6-yl)-2-methyl-phenyl]-4-tert-butyl-benzamide] |
| 137 to 138 | O=C(Cc1cccc(-c2cc(Nc3ccc(C(=O)N4CCOCC4)cn3)c3nccn3c2)c1)N1CC(OC(C(F)(F)F)C(F)(F)F)C1 [Example I-90, 2-(3-{8-[5-(Morpholine-4-carbonyl)-pyridin-2-ylamino]-imidazo[1,2-a]pyridin-6-yl}-phenyl)-1-[3-(2,2,2-trifluoro-1-trifluoromethyl-ethoxy)-azetidin-1-yl]-ethanone] |
| 129 to 130 | CNC(=O)Nc1cc(-c2cccc(CC(=O)NCC#CC(C)(C)C)c2)cn2ccnc12 [Example I-99, N-(4,4-Dimethyl-pent-2-ynyl)-2-{3-[8-(3-methyl-ureido)-imidazo[1,2-a]pyridin-6-yl]-phenyl}-acetamide] |
| 69 to 70 | CNC(=O)Nc1cc(-c2ccccc2)cn2ccnc12 [Example I-61, 1-Methyl-3-(6-phenyl-imidazo[1,2-a]pyridin-8-yl)-urea] |
| 136.8 to 147.5 | CC(O)(C#CCNC(=O)Cc1cccc(-c2cc(Nc3ccc(C(=O)N4CCOCC4)cn3)c3nccn3c2)c1)C(F)(F)F (stereo not drawn) [Example I-84, 2-(3-{8-[5-(Morpholine-4-carbonyl)-pyridin-2-ylamino]-imidazo[1,2-a]pyridin-6-yl}-phenyl)-N-(5,5,5-trifluoro-4-hydroxy-4-methyl-pent-2-ynyl)-acetamide] |
| 147.1 to 151.7 | CNC(=O)Nc1cc(-c2cccc(NC(=O)c3ccc(OC(C)C)cc3)c2C)cn2ccnc12 [Example I-81, 4-Isopropoxy-N-[2-methyl-3-[8-(3-methyl-ureido)-imidazo[1,2-a]pyridin-6-yl]-phenyl}-benzamide] |
| 176 to 177 | Cc1c(NC(=O)c2ccc(C(C)(C)C)cc2)cccc1-c1cc(NC(=O)NCCO)c2nccn2c1 [Example I-71, 4-tert-Butyl-N-(3-{8-[3-(2-hydroxy-ethyl)-ureido]-imidazo[1,2-a]pyridin-6-yl}-2-methyl-phenyl)-benzamide] |
| 153.7 to 164.4 | Cc1c(NC(=O)c2ccc(N(C)C)cc2)cccc1-c1cc(NC(=O)NCCO)c2nccn2c1 [Example I-64, 4-Dimethylamino-N-(3-{8-[3-(2-hydroxy-ethyl)-ureido]-imidazo[1,2-a]pyridin-6-yl}-2-methyl-phenyl)-benzamide] |
| 147.6 to 152.9 | CNC(=O)Nc1cc(-c2cccc(NC(=O)c3ccc(OC)cc3)c2C)cn2ccnc12 [Example I-78, 4-Methoxy-N-{2-methyl-3-[8-(3-methyl-ureido)-imidazo[1,2-a]pyridin-6-yl]-phenyl}-benzamide] |
| 190.2 to 209.7 | Cc1c(NC(=O)c2ccc(N(C)C)cc2)cccc1-c1cc(NC(=O)NCCCN2CCOCC2)c2nccn2c1 [Example I-68, 4-Dimethylamino-N-(2-methyl-3-{8-[3-(3-morpholin-4-yl-propyl)-ureido]-imidazo[1,2-a]pyridin-6-yl}-phenyl)-benzamide] |
| 144 to 145 | Cc1c(NC(=O)c2ccc(N(C)C)cc2)cccc1-c1cc(NC(=O)NCCCN2CCN(C)CC2)c2nccn2c1 [Example I-72, 4-Dimethylamino-N-[2-methyl-3-(8-{3-[3-(4-methyl-piperazin-1-yl)-propyl]-ureido}-imidazo[1,2-a]pyridin-6-yl)-phenyl]-benzamide] |
| 185.4 to 215 | Cc1c(NC(=O)c2ccc(C(C)(C)C)cc2)cccc1-c1cc(NC(N)=O)c2nccn2c1 [Example I-67, 4-tert-Butyl-N-[2-methyl-3-(8-ureido-imidazo[1,2-a]pyridin-6-yl)-phenyl]-benzamide] |
| 148.4 to 153.2 | CNC(=O)Nc1cc(-c2cccc(NC(=O)c3ccc(OC(F)(F)F)cc3)c2C)cn2ccnc12 [Example I-79, N-{2-Methyl-3-[8-(3-methyl-ureido)-imidazo[1,2-a]pyridin-6-yl]-phenyl}-4-trifluoromethoxy-benzamide] |
| 198 to 200 | Cc1c(NC(=O)c2ccc(C(O)(C(F)(F)F)C(F)(F)F)cc2)cccc1-c1cc(NC(=O)NCCCN(C)C)c2nccn2c1 [Example I-98, N-(3-{8-[3-(3-Dimethylamino-propyl)-ureido]-imidazo[1,2-a]pyridin-6-yl}-2-methyl-phenyl)-4-(2,2,2-trifluoro-1-hydroxy-1-trifluoromethyl-ethyl)-benzamide] |

More lines, now with the values behind:

| Compound | melting point [°C] |
| --- | --- |
| CNC(=O)Nc1cc(-c2ccccc2)nn2ccnc12 [Example I-13, 1-Methyl-3-(6-phenyl-imidazo[1,2-b]pyridazin-8-yl)-urea] | 192 to 193 |
| CNC(=O)Nc1cc(-c2cccc(CC(=O)N3Cc4ccccc4C3)c2)nn2ccnc12 [Example I-14, 1-(6-{3-[2-(1,3-Dihydro-isoindol-2-yl)-2-oxo-ethyl]-phenyl}-imidazo[1,2-b]pyridazin-8-yl)-3-methyl-urea] | 244 to 245 |
| Cc1c(NC(=O)c2ccc(C(C)(C)C)cc2)cccc1-c1cc(NC(=O)NC(C)(C)C)c2nccn2n1 [Example I-10, 4-tert-Butyl-N-{3-[8-(3-tert-butyl-ureido)-imidazo[1,2-b]pyridazin-6-yl]-2-methyl-phenyl}-benzamide] | 191 to 193 |
| CCOC(=O)c1ccc(Nc2cc(-c3ccccc3)cn3ccnc23)nc1 [Example I-47, 6-(6-Phenyl-imidazo[1,2-a]pyridin-8-ylamino)-nicotinic acid ethyl ester] | 141.5 to 142.5 |
| CNC(=O)Nc1cc(-c2cccc(NC(=O)c3ccc([Si](C)(C)C)cc3)c2C)cn2ccnc12 | 143.5 to 154.4 |
| C1=C(c2cc(Nc3ccccn3)c3nccn3n2)CCCC1 [Example I-3, (6-Cyclohex-1-enyl-imidazo[1,2-b]pyridazin-8-yl)-pyridin-2-yl-amine] | 160.7 to 161.5 |
| CCC(=O)Nc1cc(-c2cccc(NC(=O)c3ccc(C(C)(C)C)cc3)c2C)cn2ccnc12 [Example I-54, 4-tert-Butyl-N-[2-methyl-3-(8-propionylamino-imidazo[1,2-a]pyridin-6-yl)-phenyl]-benzamide] | 99 to 100 |
| Cc1c(NC(=O)c2ccc(C(C)(C)C)cc2)cccc1-c1cc(Nc2nccs2)c2nccn2n1 [Example I-12, 4-tert-Butyl-N-{2-methyl-3-[8-(thiazol-2-ylamino)-imidazo[1,2-b]pyridazin-6-yl]-phenyl}-benzamide] | 178 to 179 |
| CNC(=O)Nc1cc(-c2cccc(NC(=O)N3CC(OC(C)(C)C)C3)c2C)cn2ccnc12 [Example I-75, 3-tert-Butoxy-azetidine-1-carboxylic acid {2-methyl-3-[8-(3-methyl-ureido)-imidazo[1,2-a]pyridin-6-yl]-phenyl}-amide] | 158 to 161 |
| Cc1c(NC(=O)c2ccc(C(C)(C)C)cc2)cccc1-c1cc(NC(=O)NC(C)C)c2nccn2n1 [Example I-6, 4-tert-Butyl-N-{3-[8-(3-isopropyl-ureido)-imidazo[1,2-b]pyridazin-6-yl]-2-methyl-phenyl}-benzamide] | 178 to 180 |
| Cc1c(NC(=O)N2CC(OC(C)(C)C)C2)cccc1-c1cc(NC(=O)NCCCN(C)C)c2nccn2c1 [Example I-70, 3-tert-Butoxy-azetidine-1-carboxylic acid {3-{8-[3-(3-dimethylamino-propyl)-ureido]-imidazo[1,2-a]pyridin-6-yl}-2-methyl-phenyl)-amide] | 129 to 130 |
